Marks after values point to notes of the source that are not given here.
Key:
Phytophthora infestans = assay type: in vivo; conditions: tomato plants, spray, 500 ppm, grading 5 days after contamination
[1] = pH 2.7

SMILES	Eff. % (Phytophthora infestans) [%]	LogP [1]
CC(Oc1ccccc1Cl)C(=O)Nc1nc(CO/N=C(/c2ccccc2)c2noc(=O)n2C)cs1 (racemic) [Example 366]	94	4.07 [a]
CC(C)CC(C)OC(=O)Nc1cccc(CO/N=C(/c2ccc(F)cc2)c2noc(=O)n2C)n1 (racemic) [Example 383]	70	4.77 [a]
CCC(C(=O)Nc1cccc(CO/N=C(/c2ccccc2)c2noc(=O)n2C)n1)c1ccccc1 (racemic) [Example 386]	80	4.23 [a]
CC(OCC1CC1)C(=O)Nc1cccc(CO/N=C(/c2ccccc2)c2noc(=O)n2C)n1 (racemic) [Example 390]	100	3.78 [a]
Cn1c(/C(=N\OCc2csc(NC(=O)c3ccccc3F)n2)c2ccccc2)noc1=O [Example 27]	100	3.44 [a]
Cn1c(/C(=N\OCc2cccc(NC(=O)Cc3ccccc3Cl)n2)c2ccccc2)noc1=O [Example 29]	100	3.76 [a]
CCCCCCCC(=O)Nc1cccc(CO/N=C(/c2ccccc2)c2noc(=O)n2C)n1 [Example 32]	100	4.71 [a]
CCCOC(=O)Nc1cccc(CO/N=C(/c2ccccc2)c2noc(=O)n2C)n1 [Example 33]	100	3.62 [a]
CC(C)CCOC(=O)Nc1nc(CO/N=C(/c2ccccc2)c2noc(=O)n2C)cs1 [Example 47]	100	4.06 [a]
CCOCCC(=O)Nc1cccc(CO/N=C(/c2ccccc2)c2noc(=O)n2C)n1 [Example 48]	98	2.96 [a]
CC(=O)Nc1cccc(CO/N=C(/c2ccccc2)c2noc(=O)n2C)n1 [Example 52]	100	2.44 [a]
Cn1c(/C(=N\OCc2csc(NC(=O)COc3ccc(Br)cc3)n2)c2ccccc2)noc1=O [Example 55]	100	3.94 [a]
CCC(C)CCOC(=O)Nc1cccc(CO/N=C(/c2ccccc2)c2noc(=O)n2C)n1 (stereo not shown) [Example 56]	100	4.78 [a]
CCn1c(/C(=N\OCc2cccc(NC(=O)OC3CCCCC3)n2)c2ccccc2)noc1=O [Example 61]	100	4.77 [a]
Cn1c(/C(=N\OCc2csc(NC(=O)OCC(C)(C)C)n2)c2ccccc2)noc1=O [Example 72]	97	4.01 [a]
Cn1c(/C(=N\OCc2csc(NC(=O)Oc3ccccc3)n2)c2ccccc2)noc1=O [Example 75]	90	3.48 [a]
Cn1c(/C(=N\OCc2cccc(NC(=O)CC3CC4CCC3C4)n2)c2ccccc2)noc1=O (stereo not shown) [Example 78]	100	4.39 [a]
Cn1c(C(=NOCc2cccc(NC(=O)OCCCCCCCl)n2)c2ccccc2)noc1=O [compound 486]	–	4.49 [a]
Cc1ccccc1COC(=O)Nc1cccc(CON=C(c2ccccc2)c2noc(=O)n2C)n1 [compound 487]	–	4.29 [a]
CCC=CCCCOC(=O)Nc1cccc(CON=C(c2ccccc2)c2noc(=O)n2C)n1 [compound 488]	–	4.78 [a]
COC(=O)C(C)(C)COC(=O)Nc1cccc(CON=C(c2ccccc2)c2noc(=O)n2C)n1 [compound 489]	–	3.65 [a]
C=CCOCCOC(=O)Nc1cccc(CON=C(c2ccccc2)c2noc(=O)n2C)n1 [compound 490]	–	3.37 [a]
COC(=O)C(C)COC(=O)Nc1cccc(CON=C(c2ccccc2)c2noc(=O)n2C)n1 (stereo not shown) [compound 491]	–	3.33 [a]
CC(C)c1ccc(OC(=O)Nc2cccc(CON=C(c3ccccc3)c3noc(=O)n3C)n2)cc1 [compound 492]	–	4.67 [a]

SMILES	Eff. % (Phytophthora infestans) [%]	LogP [1]
Cc1cccc(C)c1OC(=O)Nc1cccc(CON=C(c2ccccc2)c2noc(=O)n2C)n1 [compound 494]	–	4.2 [a]
Cn1c(C(=NOCc2cccc(NC(=O)OCc3ccccc3F)n2)c2ccccc2)noc1=O [compound 495]	–	4.01 [a]
Cn1c(C(=NOCc2cccc(NC(=O)OCCOC3CCCCC3)n2)c2ccccc2)noc1=O [compound 496]	–	4.31 [a]
Cn1c(C(=NOCc2cccc(NC(=O)OCCCc3cccnc3)n2)c2ccccc2)noc1=O [compound 497]	–	2.11 [a]
Cc1cc(C)cc(COC(=O)Nc2cccc(CON=C(c3ccccc3)c3noc(=O)n3C)n2)c1 [compound 498]	–	4.68 [a]
Cn1c(C(=NOCc2cccc(NC(=O)OCC(F)(F)F)n2)c2ccccc2)noc1=O [compound 500]	–	3.57 [a]
Cn1c(C(=NOCc2cccc(NC(=O)OCc3cccc(F)c3)n2)c2ccccc2)noc1=O [compound 501]	–	4.01 [a]
CC(OC(=O)Nc1cccc(CON=C(c2ccccc2)c2noc(=O)n2C)n1)C1CCCC1 (stereo not shown) [compound 502]	–	4.82 [a]
CCC#CCOC(=O)Nc1cccc(CON=C(c2ccccc2)c2noc(=O)n2C)n1 [compound 503]	–	3.78 [a]
C=C(C)COC(=O)Nc1cccc(CON=C(c2ccccc2)c2noc(=O)n2C)n1 [compound 504]	–	3.73 [a]
CC=CCCCOC(=O)Nc1cccc(CON=C(c2ccccc2)c2noc(=O)n2C)n1 [compound 505]	–	4.39 [a]
CC(C)CCCCOC(=O)Nc1cccc(CON=C(c2ccccc2)c2noc(=O)n2C)n1 [compound 506]	–	5.17 [a]
CCCC=CCOC(=O)Nc1cccc(CON=C(c2ccccc2)c2noc(=O)n2C)n1 [compound 507]	–	4.56 [a]
CC=CCCCOC(=O)Nc1cccc(CON=C(c2ccccc2)c2noc(=O)n2C)n1 [compound 509]	–	4.44 [a]
CCCC#CCCOC(=O)Nc1cccc(CON=C(c2ccccc2)c2noc(=O)n2C)n1 [compound 511]	–	4.31 [a]
CC(=O)OCCCCOC(=O)Nc1cccc(CO/N=C(/c2ccccc2)c2noc(=O)n2C)n1 [compound 514]	–	3.35 [a]
C=CC(=O)OCCOC(=O)Nc1cccc(CO/N=C(/c2ccccc2)c2noc(=O)n2C)n1 [compound 515]	–	3.21 [a]
CSCCCOC(=O)Nc1cccc(CO/N=C(/c2ccccc2)c2noc(=O)n2C)n1 [compound 516]	–	3.68 [a]
Cn1c(/C(=N\OCc2cccc(NC(=O)OCCCl)n2)c2ccccc2)noc1=O [compound 518]	–	3.29 [a]
CCC1(COC(=O)Nc2cccc(CO/N=C(/c3ccccc3)c3noc(=O)n3C)n2)COC1 [compound 520]	–	3.27 [a]
Cc1ccccc1OC(=O)Nc1cccc(CO/N=C(/c2ccccc2)c2noc(=O)n2C)n1 [compound 521]	–	3.96 [a]
CC/C=C/CCOC(=O)Nc1cccc(CO/N=C(/c2ccccc2)c2noc(=O)n2C)n1 [compound 522]	–	4.46 [a]
Cn1c(/C(=N\OCc2cccc(NC(=O)OCCCC3CCCCC3)n2)c2ccccc2)noc1=O [compound 523]	–	5.71 [a]
Cn1c(/C(=N\OCc2cccc(NC(=O)OCC3CCOC3)n2)c2ccccc2)noc1=O (stereo not shown) [compound 524]	–	2.98 [a]

SMILES	Eff. % (Phytophthora infestans) [%]	LogP [1]
Cn1c(/C(=N\OCc2cccc(NC(=O)OCC3CC=CCC3)n2)c2ccccc2)noc1=O (stereo not shown) [compound 526]	–	4.51 [a]
Cn1c(/C(=N\OCc2cccc(NC(=O)OCc3cccs3)n2)c2ccccc2)noc1=O [compound 527]	–	3.83 [a]
Cn1c(/C(=N\OCc2cccc(NC(=O)OCc3ccc(F)cc3)n2)c2ccccc2)noc1=O [compound 528]	–	3.99 [a]
Cn1c(/C(=N\OCc2cccc(NC(=O)OCC3COCO3)n2)c2ccccc2)noc1=O (stereo not shown) [compound 529]	–	2.73 [a]
CCCOCCOC(=O)Nc1cccc(CO/N=C(/c2ccccc2)c2noc(=O)n2C)n1 [compound 531]	–	3.57 [a]
COc1ccc(OC(=O)Nc2cccc(CO/N=C(/c3ccccc3)c3noc(=O)n3C)n2)cc1 [compound 532]	–	3.69 [a]
Cn1c(/C(=N\OCc2cccc(NC(=O)OCCC3CCCC3)n2)c2ccccc2)noc1=O [compound 533]	–	4.9 [a]
CCC/C=C\COC(=O)Nc1cccc(CO/N=C(/c2ccccc2)c2noc(=O)n2C)n1 [compound 535]	–	4.53 [a]
Cn1c(/C(=N\OCc2cccc(NC(=O)OCC(Cl)(Cl)Cl)n2)c2ccccc2)noc1=O [compound 536]	–	4.15 [a]
Cn1c(/C(=N\OCc2cccc(NC(=O)OCCC3CCOCC3)n2)c2ccccc2)noc1=O [compound 537]	–	3.44 [a]
CC/C=C\CCOC(=O)Nc1cccc(CO/N=C(/c2ccccc2)c2noc(=O)n2C)n1 [compound 540]	–	4.44 [a]
Cn1c(/C(=N\OCc2cccc(NC(=O)OCC3CCCCC3)n2)c2ccccc2)noc1=O [compound 541]	–	4.88 [a]
Cn1c(/C(=N\OCc2cccc(NC(=O)OCC[Si](C)(C)C)n2)c2ccccc2)noc1=O [compound 542]	–	4.88 [a]
Cn1c(/C(=N\OCc2cccc(NC(=O)OCCCCl)n2)c2ccccc2)noc1=O [compound 544]	–	3.6 [a]
CC(C)OCCOC(=O)Nc1cccc(CO/N=C(/c2ccccc2)c2noc(=O)n2C)n1 [compound 545]	–	3.44 [a]
Cc1ccc(COC(=O)Nc2cccc(CO/N=C(/c3ccccc3)c3noc(=O)n3C)n2)cc1 [compound 546]	–	4.31 [a]
COC(=O)Nc1cccc(CO/N=C(/c2ccccc2)c2noc(=O)n2C)n1 [compound 547]	–	2.84 [a]
CC#CCCOC(=O)Nc1cccc(CO/N=C(/c2ccccc2)c2noc(=O)n2C)n1 [compound 548]	–	3.58 [a]
Cn1c(/C(=N\OCc2cccc(NC(=O)OCCCC3CC3)n2)c2ccccc2)noc1=O [compound 549]	–	4.37 [a]
Cn1c(/C(=N\OCc2cccc(NC(=O)OCCCCCl)n2)c2ccccc2)noc1=O [compound 550]	–	3.83 [a]
Cn1c(/C(=N\OCc2cccc(NC(=O)OCCF)n2)c2ccccc2)noc1=O [compound 551]	–	2.96 [a]
CC(C)c1cccc(OC(=O)Nc2cccc(CO/N=C(/c3ccccc3)c3noc(=O)n3C)n2)c1 [compound 553]	–	4.64 [a]
CCOC(=O)COC(=O)Nc1cccc(CO/N=C(/c2ccccc2)c2noc(=O)n2C)n1 [compound 554]	–	3.21 [a]

From US9090600B2, “Fungicidal 4-substituted-3-{phenyl[(heterocyclylmethoxy)imino]methyl}-1,2,4-oxadizol-5(4H)-one derivatives” (BAYER INTELLECTUAL PROPERTY GMBH, priority 2011, dated 2015)
